From the supplement of paper PMC10307832

Key:
Test in all cases: relative viability (nuclei count vs DMSO), 5 days (fraction); higher = more cells survive
Dabrafenib + Vorinostat = compound: CC(C)(C)c1nc(-c2cccc(NS(=O)(=O)c3c(F)cccc3F)c2F)c(-c2ccnc(N)n2)s1 [Dabrafenib] + O=C(CCCCCCC(=O)Nc1ccccc1)NO [Vorinostat] (partner 1 µM)
How it was run: (§1)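 Lung cancer cell lines in 1536-well plates got either a single drug or a fixed anchor-drug dose together with five library-drug doses (not always all listed) in √10 steps, by pin tool, on the day after seeding. Nuclei were counted after 5 days, and relative viability is the treated-to-vehicle ratio of nuclei counts. Values are medians of duplicate plates.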

VX-702 + Navitoclax = compound: NC(=O)c1ccc(N(C(N)=O)c2c(F)cccc2F)nc1-c1ccc(F)cc1F [VX-702] + CC1(C)CCC(c2ccc(Cl)cc2)=C(CN2CCN(c3ccc(C(=O)NS(=O)(=O)c4ccc(N[C@H](CCN5CCOCC5)CSc5ccccc5)c(S(=O)(=O)C(F)(F)F)c4)cc3)CC2)C1 [Navitoclax] (partner 0.5 µM)
How it was run: as §1

Dabrafenib + OSI-027 = compound: CC(C)(C)c1nc(-c2cccc(NS(=O)(=O)c3c(F)cccc3F)c2F)c(-c2ccnc(N)n2)s1 [Dabrafenib] + COc1cccc2cc(-c3nc([C@H]4CC[C@H](C(=O)O)CC4)n4ncnc(N)c34)[nH]c12 [OSI-027] (partner 0.5 µM)
How it was run: as §1

VX-702 + Linsitinib = compound: NC(=O)c1ccc(N(C(N)=O)c2c(F)cccc2F)nc1-c1ccc(F)cc1F [VX-702] + C[C@]1(O)C[C@@H](c2nc(-c3ccc4ccc(-c5ccccc5)nc4c3)c3c(N)nccn32)C1 [Linsitinib] (partner 1 µM)
How it was run: as §1

Cell Line | relative viability (Dabrafenib + Vorinostat; first compound 0.003 µM) | relative viability (Dabrafenib + Vorinostat; first compound 0.009487 µM) | relative viability (Dabrafenib + Vorinostat; first compound 0.03 µM) | relative viability (Dabrafenib + Vorinostat; first compound 0.09487 µM) | relative viability (Dabrafenib + Vorinostat; first compound 0.3 µM) | relative viability (VX-702 + Navitoclax; first compound 0.02 µM) | relative viability (VX-702 + Navitoclax; first compound 0.2 µM) | relative viability (VX-702 + Navitoclax; first compound 0.6325 µM) | relative viability (VX-702 + Navitoclax; first compound 2 µM) | relative viability (Dabrafenib + OSI-027; first compound 0.003 µM) | relative viability (Dabrafenib + OSI-027; first compound 0.009487 µM) | relative viability (Dabrafenib + OSI-027; first compound 0.03 µM) | relative viability (Dabrafenib + OSI-027; first compound 0.09487 µM) | relative viability (Dabrafenib + OSI-027; first compound 0.3 µM) | relative viability (VX-702 + Linsitinib; first compound 0.02 µM) | relative viability (VX-702 + Linsitinib; first compound 0.2 µM) | relative viability (VX-702 + Linsitinib; first compound 0.6325 µM) | relative viability (VX-702 + Linsitinib; first compound 2 µM)
NCI-H1975 | 0.636 | 0.742 | 0.741 | 0.705 | 0.663 | 1.09 | 1.06 | 1.08 | 1.23 | 0.657 | 0.728 | 0.805 | 0.535 | 0.581 | 1.01 | 0.998 | 0.887 | 1.17
NCI-H1993 | 0.753 | 1.35 | 0.735 | 0.631 | 1.09 | 0.805 | 0.874 | 0.896 | 0.835 | 0.468 | 0.498 | 0.433 | 0.565 | 0.56 | 0.712 | 0.718 | 0.745 | 0.8
NCI-H2009 | 0.651 | 0.64 | 0.673 | 0.414 | 0.574 | 1.18 | 1.2 | 1.25 | 1.47 | 0.423 | 0.617 | 0.321 | 0.249 | 0.251 | 1.33 | 1.23 | 1.21 | 1.34
NCI-H2023 | 0.716 | 0.717 | 0.733 | 0.559 | 0.6 | 1.02 | 1.01 | 0.89 | 1.03 | 0.325 | 0.455 | 0.385 | 0.355 | 0.395 | 0.568 | 0.561 | 0.629 | 0.612
NCI-H2085 | 0.669 | 1.01 | 0.801 | 0.79 | 0.748 | 1.21 | 1.24 | 1.12 | 1.2 | 0.355 | 1.06 | 0.675 | 0.616 | 0.859 | 0.911 | 0.882 | 0.903 | 1.02
NCI-H2087 |  | 0.8 | 0.779 | 0.594 | 0.809 | 0.975 | 0.838 | 0.92 | 1.05 |  | 0.541 | 0.682 | 0.622 | 0.454 | 1.07 | 0.982 | 0.879 | 1.01
NCI-H2126 | 0.693 | 0.916 | 0.767 | 0.888 | 0.993 | 0.832 | 0.814 | 0.779 | 0.698 | 0.492 | 0.787 | 0.717 | 0.609 | 0.954 | 0.726 | 0.697 | 0.67 | 0.634
NCI-H2228 | 0.501 | 0.53 | 0.656 | 0.381 | 0.877 | 1.29 | 0.973 | 0.886 | 0.952 |  | 0.668 | 0.554 | 0.52 | 0.607 | 0.724 | 0.671 | 0.685 | 0.761
NCI-H2347 |  | 0.603 | 0.385 | 0.551 | 0.591 | 0.887 | 0.712 | 0.756 | 0.792 |  | 0.514 | 0.254 | 0.394 | 0.416 | 0.968 | 0.977 | 0.896 | 0.986
NCI-H2405 |  | 1 | 0.488 | 0.81 | 0.962 | 0.813 | 0.773 | 0.89 | 1.2 |  | 0.696 |  | 0.548 | 0.626 | 0.914 | 0.981 | 0.896 | 0.982
NCI-H3122 | 0.978 | 0.966 | 0.916 | 0.991 | 1.02 | 1.07 | 1.05 | 1.04 | 1.02 | 0.919 | 0.967 | 1.07 | 0.925 | 1.06 | 1.02 | 1.02 | 0.985 | 1.01
PC-3 [JPC-3] |  | 0.981 | 0.713 | 0.771 | 1.12 | 0.756 | 0.846 | 0.844 | 0.853 | 0.629 | 0.84 | 0.771 | 0.705 | 0.801 | 0.966 | 1.01 | 1.03 | 1.05
PC-14 |  | 0.829 | 0.737 | 0.757 | 0.73 | 1.06 | 1.01 | 1.04 | 1.03 | 0.438 | 1.13 | 0.775 | 0.804 | 0.794 | 0.965 | 0.943 | 1.04 | 1.04
RERF-LC-KJ | 0.745 | 0.779 | 0.706 | 0.618 | 0.789 | 1.18 | 1.1 | 0.83 | 0.869 | 0.565 | 0.767 | 0.615 | 0.68 | 0.731 | 0.956 | 0.883 | 0.876 | 0.966
SK-LU-1 |  | 0.716 | 0.692 | 0.605 | 0.651 | 0.7 | 0.757 | 0.66 | 1.32 |  | 0.366 | 0.217 | 0.285 | 0.227 | 1.06 | 1.03 | 1.08 | 1.22
SK-MES-1 |  | 1.05 | 1.14 | 1.04 | 0.854 | 1.24 | 1.12 | 1.22 | 1.44 | 0.254 | 0.663 | 0.552 | 0.495 | 0.23 | 1.06 | 0.997 | 1.04 | 1.1
SW 1573 | 0.73 | 0.719 | 0.672 | 0.552 | 0.673 | 0.938 | 0.809 | 0.831 | 0.909 | 0.463 | 0.61 | 0.525 | 0.623 | 0.548 | 0.918 | 0.737 | 0.647 | 0.659
UMC-11 | 0.379 | 0.362 | 0.409 | 0.473 | 0.454 | 0.274 | 0.293 | 0.303 | 0.359 | 0.439 | 0.504 | 0.481 | 0.475 | 0.49 | 0.949 | 0.985 | 0.851 | 1.08
